Converted amounts (≈) assume the structure as drawn. Read-outs that look alike come from different tables or passages of the source. Bounds are passed on as bounds.

The conditions of data set [1]: cited from earlier work.
Data set [2] in a line: Physicochemical properties of tazarotene.
The test system of data set [3] is retinoic acid receptor (RAR) family: RARα, RARβ, and RARγ. Particulars: cited from earlier work.

By solubility is commonly meant the concentration that dissolves in the medium under given conditions. Consider `CCOC(=O)c1ccc(C#Cc2ccc3c(c2)C(C)(C)CCS3)nc1` [Tazarotene, Ethyl 6-[(4,4-dimethylthiochroman-6-yl)ethynyl]nicotinate], for which the pKa in data set [1] was 1.5^(1). In addition, the “crystalline drug by DSC or PXRD analysis” value in data set [2] (at 1% or at 4% in Compritol) is “no crystalline drug was detected”. The solubility in data set [2] (isopropyl myristate, oil or lipid, read-out: Solubility in isopropyl myristate) was 7400 µg/mL (≈ 21.1 mM); in data set [2] (water, read-out: Solubility in water) it was less than 1 µg/mL.
With `CC1(C)CCSc2ccc(C#Cc3ccc(C(=O)O)cn3)cc21` [Tazarotenic acid], in data set [3], the “binding to RARα, RARβ and RARγ” value is on record as “binds to all three members”; the “selectivity among RARs” value is “relative selectivity for RARβ, and RARγ”.

The record behind these values is US20150209343A1, “TOPICAL DERMAL COMPOSITIONS” (Allergan, Inc., priority 2014, published 2015).
